Patent publication US20250280827A1, “An antifungal composition comprising natamycin and at least one insecticide” (priority 2021, published 2025)

Columns and labels:
Format in all cases: in vivo
[1] = test system: Botrytis cinerea; assay: Antifungal effect against Botrytis cinerea infection on wounded peel of banana fruits (Colby synergy); details: natamycin-insecticide 1:0 ppm
Description: (§1) wherein X and Y are the observed antifungal activities (in %) of the individual active ingredients x and y, respectively. If the observed antifungal activity (O in %) of the combination exceeds the expected antifungal activity (E in %) of the combination and the synergy factor O/E is thus >1.0, the combined application of the active ingredients leads to a synergistic antifungal effect.
(§2) Application: The broad bean pods were washed under tap water, and were subsequently surface sterilized by placing them in a 0.1% sodium hypochlorite solution for 5 minutes. The pods were then rinsed with tap water and dried. Transparent plastic containers were prepared by placing a piece of absorbing paper in the container and adding 25 ml of water, one container per treatment was used. The pods were cut in two, and two halve pods were incubated per box. The skin of broad bean pods was damaged with a needle, ø 2 mm and to a depth of about 3 mm into the fruit, with—depending on the size of the pod—2 to 4 wounds per half pod. In total, 6 wounds were incubated per treatment, of which 1 was used as a control. A volume of 20 microliter of a natamycin/insecticide composition, as presented herein above, was applied by pipette to each wound. The treatments were then left to air-dry. Once dried, a mycelium plug of Sclerotinia sclerotiorum was placed upside down on each wound, so that the mycelium was in direct contact with the wound. Per treatment 5 wounds were inoculated with the fungus, while the 6th and last wound was used as negative non-inoculated control. After inoculation, the containers were directly closed with a transparent plastic lid.
The infection area was measured 5 days after inoculation.
A few changes were made for the banana experiments: 5 wounds per banana were made, on each wound 40 microliter of treatments was pipetted. The treatments were then left to air-dry. Once dried, 2 microliter of a freshly prepared inoculum was pipetted on four of the wounds. The inoculum consists of […] potato dextrose broth (PDB) medium containing Botrytis cinerea spores at a concentration of 10^6 spores per ml. The fifth wound was used as negative non-inoculated control. Experiment was performed in 4-fold.
Assessment of the infection area was performed 3 days after inoculation. Experiment was performed in 4-fold.
Imidacloprid was formulated as described in Table 2. Assessment of the efficacy was 5 days after inoculation. Experiment was performed in 4-fold.

[2] = test system: Sclerotinia sclerotiorum; assay: Antifungal effect against Sclerotinia sclerotiorum infection on wounded skin of broad bean pods (rot area, Colby synergy); details: natamycin-insecticide 15-0 ppm
Description: The Colby equation (Colby, 1967. Weeds 15:20-22) calculates the expected antifungal activity (E in %) of a combination comprising more than one active ingredients:
as §1
• 1) Control (without natamycin and lambda-cyhalothrin) • 2) Natamycin at a level of 15 ppm • 3) Lambda-cyhalothrin (in the product KARATE ZEON® of Syngenta) at a levels of 0.15 ppm, 0.6 ppm, 3 ppm and 15 ppm • 4) Natamycin at a level of 15 ppm combined with lambda-cyhalothrin at levels of 0.15 ppm, 0.6 ppm, 3 ppm or 15 ppm.
Used pathogen: Sclerotinia sclerotiorum.
as §2
All pods were kept at room temperature (20° C.). Wounds of the pods were checked after 30 h of incubation.
Replicates: All treatments for the broad bean pod experiment were performed on two individual pod halves resulting in 5 wounds per treatment, while a sixth wound served as control.
The experiments were performed as described in Example 1.
The experiments were performed as described in Example 1. Assessment of the infection area was 23 h after inoculation. Experiment was performed in 5-fold.
The experiments were performed as described in Example 1. Thiamethoxam belongs to IRAC Group 4. Assessment of the infection area was 31 hours after inoculation. Experiment was performed in 5-fold.
The experiments were performed as described in Example 1. The product SPECTRE® of company (Adama) containing the active ingredient chlorfenapyr belonging to IRAC Group 13 was tested. Assessment of the infection area was 23 hours after inoculation. Experiment was performed in 5-fold.

[3] = test system: Colletotrichum spp.; assay: Antifungal effect against Colletotrichum infection on wounded skin of pepper fruits (Colby synergy)
Description: as §1, with “effect. […]” for “effect.”
For the treatment, 5 wounds per pepper side were done as previously described. In addition, one wound was done as negative control. Depending on the number of sides of the pepper, 3 to 4 treatments were done per paprika. Per wound 10 μl of treatment was placed on the wound. The treatments were let to dry in a down flow cabinet for about 30 minutes. After drying 5 μl spore suspension at a concentration of 10^7 spores per ml were placed on the wounds. The fungus was isolated from Colletotrichum-infected plant material and identified using techniques known to the person skilled in the art. The pepper were placed as described previously in a transparent container, with the difference that the containers were then placed in a transparent plastic zipper bag. The bags with peppers were placed at room temperature and in the dark for two days. After that the size of the lesions were measured. Assessment of the infection area was 4 days after inoculation. Experiment was performed in 5-fold.
(§3) The fungus was isolated from Colletotrichum-infected plant material and identified using techniques known to the person skilled in the art. Assessment of the infection area was performed 5 days after inoculation. Experiment was performed in 5-fold.
as §3, with “The active ingredient imidacloprid was formulated as described in Table 2. Imidacloprid belonging to IRAC Group 4. The” for “The”
The fungus was isolated from Colletotrichum-infected plant material and identified using techniques known to the person skilled in the art. Assessment of the efficacy was 5 days after inoculation. Experiment was performed in 5-fold.
The fungus was isolated from Colletotrichum-infected plant material and identified using techniques known to the person skilled in the art. Assessment of the infection area was performed 6 days after inoculation. Experiment was performed in 5-fold.
The fungus was isolated from Colletotrichum-infected plant material and identified using techniques known to the person skilled in the art. Assessment of the infection area was performed 4 days after inoculation. Experiment was performed in 5-fold.

[4] = 3 days after inoculation, Table 14A
[5] = 3 days after inoculation, Table 14B
[6] = 5 days after inoculation, Table 12A
[7] = 5 days after inoculation, Table 12B
[8] = 5 days after inoculation, Table 18A
[9] = 5 days after inoculation, Table 18B
[10] = 23 h after inoculation, Table 4
[11] = 23 h after inoculation, Table 7
[12] = 23 hours after inoculation, Table 9
[13] = 30 h after inoculation, Table 3
[14] = 31 hours after inoculation, Table 8
[15] = natamycin-insecticide 1:0 ppm, 4 days after inoculation, Table 13
[16] = natamycin-insecticide 1:0 ppm, 5 days after inoculation, Table 15
[17] = natamycin-insecticide 1:0 ppm, 5 days after inoculation, Table 16
[18] = natamycin-insecticide 1:0 ppm, 5 days after inoculation, Table 17
[19] = natamycin:abamectin 1:0 ppm, 4 days after inoculation, Table 20
[20] = natamycin:fipronil 1:0 ppm, 6 days after inoculation, Table 19

C[C@@H]1C/C=C/C=C/C=C/C=C/[C@H](O[C@@H]2O[C@H](C)[C@@H](O)[C@H](N)[C@@H]2O)C[C@@H]2O[C@](O)(C[C@@H](O)C[C@H]3O[C@@H]3/C=C/C(=O)O1)C[C@H](O)[C@H]2C(=O)O [natamycin]
Avg infected area [1, 4]: 9.2 mm2 | Observed antifungal activity [1, 4]: 18.8% | Avg infected area [1, 5]: 5.5 mm2 | Observed antifungal activity [1, 5]: 43.9% | Avg infected area [1, 6]: 52.6 mm2 | Observed antifungal activity [1, 6]: 18.0% | Avg infected area [1, 7]: 84.7 mm2 | Observed antifungal activity [1, 7]: 14.3% | Avg infected area [1, 8]: 30.7 mm2 | Observed antifungal activity [1, 8]: 37.6% | Avg infected area [1, 9]: 25.9 mm2 | Observed antifungal activity [1, 9]: 11.6% | Avg infected area [2, 10]: 104.2 mm2 | Observed antifungal activity [2, 10]: 33.5% | Avg infected area [2, 11]: 99.9 mm2 | Observed antifungal activity [2, 11]: 26.9% | Avg infected area [2, 12]: 66.2 mm2 | Observed antifungal activity [2, 12]: 41.8% | Avg infected area [2, 13]: 278.54 mm^2 | Observed antifungal activity [2, 13]: 11.4% | Avg infected area [2, 14]: 172.7 mm2 | Observed antifungal activity [2, 14]: 33.1% | Avg infected area [3, 15]: 10.6 mm2 | Observed antifungal activity [3, 15]: 33.8% | Avg infected area [3, 16]: 30.2 mm2 | Observed antifungal activity [3, 16]: 28.6% | Avg infected area [3, 17]: 30.2 mm2 | Observed antifungal activity [3, 17]: 28.6% | Avg infected area [3, 18]: 22.4 mm2 | Observed antifungal activity [3, 18]: 59.5% | Avg infected area [3, 19]: 13.5 mm2 | Observed antifungal activity [3, 19]: 39.8% | Avg infected area [3, 20]: 24.7 mm^2 | Observed antifungal activity [3, 20]: 50.7%
